{"source": "patent US9029337B2", "about": "“Modulation of factor 7 expression” (Isis Pharmaceuticals, Inc., priority 2007, dated 2015)", "key": {"BALB/c mice": {"tested_on": "BALB/c mice", "assay": "Tail bleeding assay", "assay_type": "in vivo, mouse", "conditions": "mouse, in vivo", "procedure": "Mice not receiving treatment with FeCl3 solution were evaluated in a tail bleeding chamber. Mice were placed into the bleeding chamber two days after the final treatment of ISIS 403102 or PBS. Mice were anesthetized in the chamber with isofluorane and a small piece of tail (approximately 4 mm from the tip) was cut with sterile scissors. The cut tail was immediately placed in a 15 mL Falcon tube filled with approximately 10 mL of 0.9% NaCl buffer solution warmed to 37° C. The blood was collected over the course of 40 minutes. The saline filled tubes were weighed both before and after bleeding.\nTail-bleeding was measured to observe whether treatment with ISIS 403102 or warfarin causes internal hemorrhage in mice. ISIS 403102 and warfarin (Coumadin®) were evaluated in the tail bleeding assay. Six groups of BALB/c mice were treated with 1.25 mg/kg, 2.5 mg/kg, 5 mg/kg, 10 mg/kg, 20 mg/kg, or 40 mg/kg of ISIS 403102, administered subcutaneously twice a week for 3 weeks. An additional 6 groups of BALB/c mice were treated with 0.5 mg/kg, 1 mg/kg, 2 mg/kg, 3 mg/kg, 4 mg/kg, and 5 mg/kg of warfarin, administered intraperioneally daily for 6 days. A separate control group of BALB/c mice was treated with PBS, administered subcutaneously twice a week for 3 weeks.\nTwo days after the final treatment of ISIS 403102, warfarin, or PBS, mice were placed in a tail bleeding chamber. Mice were anesthetized in the chamber with isofluorane and a small piece of tail (approximately 4 mm from the tip) was cut with sterile scissors. The cut tail was immediately placed in a 15 mL Falcon tube filled with approximately 10 mL of 0.9% NaCl buffer solution warmed to 37° C. The blood was collected over the course of 40 minutes. The saline filled tubes were weighed both before and after bleeding.\nISIS 403102 and Apixaban were evaluated in BALB/c mice. In a first group of BALB/c mice, 40 mg/kg of ISIS 403102 was administered subcutaneously twice a week for 3 weeks. An additional 3 groups of BALB/c mice were treated with 5 mg/kg and 10 mg/kg of Apixaban, administered in a single intraperitoneal dose, and 10 mg/kg of Apixaban administered as a single subcutaneous dose. A control group of BALB/c mice was treated with PBS, administered subcutaneously twice a week for 3 weeks.\nTwo days after the final treatment of ISIS 403102 or PBS, mice were placed in a tail bleeding chamber. Mice from the groups treated with Apixaban were analyzed 30 minutes after the single dose. Mice were anesthetized in the chamber with isofluorane and a small piece of tail (approximately 4 mm from the tip) was cut with sterile scissors. The cut tail was immediately placed in a 15 mL Falcon tube filled with approximately 10 mL of 0.9% NaCl buffer solution warmed to 37° C. The blood was collected over the course of 40 minutes. The saline filled tubes were weighed before and after bleeding."}, "platelet factor-4 (PF-4)": {"tested_on": "platelet factor-4 (PF-4)", "assay": "Thrombus formation by real-time RT-PCR quantification of PF-4 in the FeCl3 induced venous thrombosis model", "assay_type": "in vivo, mouse", "conditions": "for PF-4 (percentage of PF-4 as compared to the PBS-treated control groups): BALB/c mice, vena cava, FeCl3", "procedure": "Three groups of BALB/c mice were injected with 25 mg/kg, 37.5 mg/kg, or 50 mg/kg of ISIS 403102, administered subcutaneously twice a week for 3 weeks. Two control groups of BALB/c mice were treated with PBS, administered subcutaneously twice a week for 3 weeks. Thrombus formation was induced with FeCl3 in half of the mice while the rest of the mice were assayed for tail bleeding. Two days after receiving the last dose of ISIS 403102 or PBS, mice were anesthetized with 150 mg/kg ketamine mixed with 10 mg/kg xylazine administered by intraperitoneal injection. Thrombus formation was induced with FeCl3 in all groups of the VT mice except the first control group.\nIn mice undergoing FeCl3 treatment, thrombus formation was induced by applying a piece of filter paper (2×4 mm) pre-saturated with 10% FeCl3 solution directly on the vena cava. After 3 minutes of exposure, the filter paper was removed. Thirty minutes after the filter paper application, a fixed length of the vein containing the thrombus was dissected out for platelet analysis. Liver was collected for RNA analysis.\nReal-time RT-PCR quantification of platelet factor-4 (PF-4) was used to quantify platelets in the vena cava as a measure of thrombus formation. Results are presented as a percentage of PF-4 in ISIS 403102, as compared to the two PBS-treated control groups. […] Therefore, antisense oligonucleotides are useful for inhibiting thrombus and clot formation.\nISIS 403102 and warfarin (Coumadin®) were evaluated in BALB/c mice. Four groups of BALB/c mice were treated with 5 mg/kg, 10 mg/kg, 20 mg/kg, or 40 mg/kg of ISIS 403102, administered subcutaneously twice a week for 3 weeks. Two days after receiving the last dose of ISIS 403102, mice were anesthetized with 150 mg/kg ketamine mixed with 10 mg/kg xylazine administered by intraperitoneal injection. Six additional groups of BALB/c mice was treated with 0.5 mg/kg, 1 mg/kg, 2 mg·kg, 3 mg/kg, 4 mg/kg, or 5 mg/kg of warfarin, administered intraperioneally daily for 6 days. Four hours after the last dose of warfarin, mice were sacrificed. A control group of BALB/c mice were treated with PBS, administered subcutaneously twice a week for 3 weeks. Two days after the last dose of PBS, mice were anesthetized with 150 mg/kg ketamine mixed with 10 mg/kg xylazine administered by intraperitoneal injection. Thrombus formation was induced with FeCl3 in groups of mice except the first control group.\nReal-time RT-PCR quantification of platelet factor-4 (PF-4) was used to quantify platelets in the vena cava as a measure of thrombus formation. Results are presented as a percentage of PF-4 in ISIS 403102 or warfarin treated mice, as compared to the two PBS-treated control groups. […] Therefore, ISIS antisense oligonucleotides are useful for inhibiting thrombus and clot formation."}}, "note": "e = 2'-O-(2-methoxyethyl) (MOE); d = 2'-deoxy (DNA)", "data": [{"sequence": "CCATAGAACAGCTTCACAGG (sugars from the 5' end e5 d10 e5, backbone and methylation of C not given here) [ISIS 403102]", "values": [{"measurement": "amount of bleeding in comparison to PBS treated mice", "setting": "BALB/c mice", "value": "slight decrease in the amount of bleeding"}, {"measurement": "bleeding as compared to PBS control mice", "setting": "BALB/c mice", "value": "did not significantly affect bleeding"}, {"measurement": "amount of bleeding in comparison to PBS treated mice", "setting": "BALB/c mice; 50 mg/kg", "value": "Bleeding was the same"}, {"measurement": "Blood (g), tail bleeding", "setting": "BALB/c mice; sc, 40 mg/kg", "value": 0.10, "unit": "g"}, {"measurement": "bleeding compared to PBS treated mice", "setting": "BALB/c mice; sc, 40 mg/kg", "value": "less bleeding than PBS treated mice"}, {"measurement": "PF-4 in comparison to the PBS control", "setting": "platelet factor-4 (PF-4); Example 14, 25, 37.5, 50 mg/kg twice a week for 3 weeks", "value": "reduction of PF-4"}, {"measurement": "PF-4 (percentage of PF-4 as compared to the PBS-treated control groups)", "setting": "platelet factor-4 (PF-4); Example 14, 25 mg/kg s.c. twice a week for 3 weeks", "value": 34, "unit": "%"}, {"measurement": "PF-4 (percentage of PF-4 as compared to the PBS-treated control groups)", "setting": "platelet factor-4 (PF-4); Example 14, 37.5 mg/kg s.c. twice a week for 3 weeks", "value": 24, "unit": "%"}, {"measurement": "PF-4 (percentage of PF-4 as compared to the PBS-treated control groups)", "setting": "platelet factor-4 (PF-4); Example 14, 50 mg/kg s.c. twice a week for 3 weeks", "value": 24, "unit": "%"}, {"measurement": "PF-4 (percentage of PF-4 as compared to the PBS-treated control groups)", "setting": "platelet factor-4 (PF-4); Example 16, 5 mg/kg s.c. twice a week for 3 weeks", "value": 69, "unit": "%"}, {"measurement": "PF-4 (percentage of PF-4 as compared to the PBS-treated control groups)", "setting": "platelet factor-4 (PF-4); Example 16, 10 mg/kg s.c. twice a week for 3 weeks", "value": 22, "unit": "%"}, {"measurement": "PF-4 (percentage of PF-4 as compared to the PBS-treated control groups)", "setting": "platelet factor-4 (PF-4); Example 16, 20 mg/kg s.c. twice a week for 3 weeks", "value": 41, "unit": "%"}, {"measurement": "PF-4 (percentage of PF-4 as compared to the PBS-treated control groups)", "setting": "platelet factor-4 (PF-4); Example 16, 40 mg/kg s.c. twice a week for 3 weeks", "value": 38, "unit": "%"}, {"measurement": "PF-4 in comparison to the PBS control", "setting": "platelet factor-4 (PF-4); Example 16, dosages of 5 mg/kg and higher, twice a week for 3 weeks", "value": "dose-dependent reduction of PF-4"}]}]}
